Test results as given in US20240299504A1, “COMPOSITIONS AND METHODS FOR TREATING ALZHEIMERS DISEASE” (priority 2023, published 2024).

Test system: 5×FAD mice
Assay: Y-maze test
Type: in vivo, mouse
Method: Parathyroid hormone (human) was purchased from TOCRIS Bioscience (Cat #3011/1, Abingdon, United Kingdom). WT or 5×FAD mice (both male and female) were treated with PTH1-34 intermittently [once daily injection of hPTH1-34 (50 μg/Kg) or vehicle (0.9% sodium chloride) (as a control) by subcutaneous injection, starting at 2-MO, 5 days per week] as described previously. Mice were then subjected to behavioral tests and sacrificed for examinations of their bone and brain phenotypes at the indicated ages.
Mice (female and male) at the age of ˜5-MO were subjected to behavioral studies. The experimental procedures are described as previously. […] The total arm entries and the number of tri-ads were recorded to quantify the percentage of spontaneous alternation. For novel object recognition (NOR), which tests mouse's memory ability for a novel object, 20 min were recorded to analyze the time to explore the old object vs. the new object of each mouse. […] During test trials, one of the objects was replaced with a new object and mice were free to explore for another 20 min, and the time spent exploring the new object and the old object was recorded. The discrimination index is quantified as the novelty object preference, which is the time spent exploring the new object minus the time exploring the old object over the total exploration time.

CC[C@H](C)[C@H](NC(=O)[C@H](CCC(=O)O)NC(=O)[C@H](CO)NC(=O)[C@@H](NC(=O)[C@@H](N)CO)C(C)C)C(=O)N[C@@H](CCC(N)=O)C(=O)N[C@@H](CC(C)C)C(=O)N[C@@H](CCSC)C(=O)N[C@@H](Cc1cnc[nH]1)C(=O)N[C@@H](CC(N)=O)C(=O)N[C@@H](CC(C)C)C(=O)NCC(=O)N[C@@H](CCCCN)C(=O)N[C@@H](Cc1cnc[nH]1)C(=O)N[C@@H](CC(C)C)C(=O)N[C@@H](CC(N)=O)C(=O)N[C@@H](CO)C(=O)N[C@@H](CCSC)C(=O)N[C@@H](CCC(=O)O)C(=O)N[C@@H](CCCN=C(N)N)C(=O)N[C@H](C(=O)N[C@@H](CCC(=O)O)C(=O)N[C@@H](Cc1c[nH]c2ccccc12)C(=O)N[C@@H](CC(C)C)C(=O)N[C@@H](CCCN=C(N)N)C(=O)N[C@@H](CCCCN)C(=O)N[C@@H](CCCCN)C(=O)N[C@@H](CC(C)C)C(=O)N[C@@H](CCC(N)=O)C(=O)N[C@@H](CC(=O)O)C(=O)N[C@H](C(=O)N[C@@H](Cc1cnc[nH]1)C(=O)N[C@@H](CC(N)=O)C(=O)N[C@@H](Cc1ccccc1)C(=O)O)C(C)C)C(C)C [PTH1-34]
Y maze spontaneous alternation (5×FAD female mice ~5-MO vs Veh-treated 5×FAD female): an increase in spontaneous alternation
Y maze spontaneous alternation (5×FAD male mice ~5-MO vs Veh): positive effect on the spontaneous alternation
